Source: ChEMBL document CHEMBL3272304, “Syntheses of heterocylic fused thiazole acetic acids. 2” (1976)
Calls of active or inactive are those of the source. The calls are words filed in the database; no cut-off is given here.

Experiments:
Format in all cases: functional
[1] = system: Mycobacterium tuberculosis; assay: Antitubercular activity against Mycobacterium tuberculosis H37Rv
[2] = system: Lewis lung carcinoma cell line; assay: Antimetastatic activity against mouse LLC cells allografted in BDF1 mouse assessed as increase in host survival
Mus musculus = assay: Antidepressant activity in po dosed mouse assessed as antagonism of reserpine-induced ptosis
[3] = system: Lewis lung carcinoma cell line; assay: Antimetastatic activity against mouse LLC cells allografted in BDF1 mouse assessed as increase in host survival at 150 mg/kg relative to control

## CCOC(=O)CC1Sc2nc(=O)cc(NC(C)=O)n2C1(O)c1ccc(Cl)cc1 (configuration not stated)
[1]
  Activity: 1 µg/mL

## CCOC(=O)CC1Sc2nc3ccccc3n2C1(O)c1ccc(Cl)cc1 (configuration not stated)
[1]
  Activity: 1 µg/mL
[2]
  Activity: Active

## Br.O=C(O)CC1SC2=NCCCN2C1(O)c1ccc(Cl)cc1 (configuration not stated)
Mus musculus
  ED50: 0.25 mg/kg
[2]
  Activity: inactive

## Br.O=C(O)CC1SC2=NCCN2C1(O)c1ccc(Cl)cc1 (configuration not stated)
Mus musculus
  ED50: 0.22 mg/kg

## Br.CCOC(=O)CC1SC2=NCCCN2C1(O)c1ccc(Cl)cc1 (configuration not stated)
Mus musculus
  ED50: 0.118 mg/kg

## NNC(=O)c1ccncc1 [ISONIAZID]
[1]
  Activity: 0.005 µg/mL

## Br.CCOC(=O)CC1SC2=NCCN2C1(O)c1ccc(Cl)cc1 (configuration not stated)
[1]
  Activity: 5 µg/mL

## Br.COC(=O)CC1SC2=NCCN2C1(O)c1ccccc1 (configuration not stated)
Mus musculus
  ED50: 0.5 mg/kg
[1]
  Activity: 5 µg/mL

## Br.CCOC(=O)CC1SC2=NCCN2C1(O)c1ccccc1 (configuration not stated)
Mus musculus
  ED50: 0.27 mg/kg
[1]
  Activity: 5 µg/mL

## Br.COC(=O)CC1SC2=NCCN2C1(O)c1ccc(Cl)cc1 (configuration not stated)
Mus musculus
  ED50: 0.5 mg/kg
[1]
  Activity: 1 µg/mL

## O=C(O)Cc1sc2nc3ccccc3n2c1-c1ccc(Cl)cc1
[2]
  Activity: Active

## COC(=O)CC1Sc2nc3ccccc3n2C1(O)c1ccc(Cl)cc1 (configuration not stated)
[1]
  Activity: 2 µg/mL
[2]
  Activity: Active

## COC(=O)CC(Sc1nc2ccccc2[nH]1)C(=O)c1ccc(Cl)cc1 (configuration not stated)
[1]
  Activity: 1 µg/mL

## Br.COC(=O)CC1Sc2nc3ccccc3n2C1(O)c1ccccc1 (configuration not stated)
[1]
  Activity: 5 µg/mL

## O=C(O)CC1Sc2nc3ccccc3n2C1(O)c1ccc(Cl)cc1 (configuration not stated)
[3]
  T/C: 37%

## CCOC(=O)CC(Sc1nc2ccccc2[nH]1)C(=O)c1ccc(Cl)cc1 (configuration not stated)
[1]
  Activity: 1 µg/mL
